Each structure is given as a SMILES string.

Drawing on PubChem BioAssay AID602444 (National Center for Advancing Translational Sciences (NCATS), 2012), this text covers percent remaining for one molecule.

The test system of the series is mouse liver microsomes without NADPH, percent remaining. Kind of series: High Content Assay for Compounds that inhibit the Assembly of the Perinucleolar Compartment: Mouse Liver Microsome Stability without NADPH. Particulars: hits give low values. From the text:
The perinucleolar compartment (PNC) is a non-membrane-bound nuclear subdomain that is associated with but structurally distinct from the nucleolus. The PNC is a heritable trait, in which the number of PNCs per cell in daughter cells often mimics that of their mother cells. The PNC is heterogeneous in shape, is stable through interphase, disassembles during mitosis, and reassembles in early G1. The PNC is concentrated with newly synthesized RNA polymerase III (pol III) RNAs (MRP RNA, RNAse P H1 RNA, hY RNAs[hY1, 2, 5], Alu RNA, and SRP [7SL] RNA) and RNA binding proteins (nucleolin, PTB, CUG-BP, KSRP, Raver1, Raver2, and Rod).
Extensive in vitro studies have shown that the PNC is unique to tumor cells and preferentially forms in tumor cells derived from solid tissues. Examination of cancer cell lines from various origins and malignant capacities has shown that PNC prevalence correlates with the malignancy of tumors and has the potential to be developed as a pan-cancer prognostic marker.
Mouse liver microsomes are generated from lysed mouse liver. Liver microsomes contain many drug metabolizing enzymes, including Cytochome P-450s and flavin-containing monooxygenases. Because drug metabolism is major way of drug clearance, this is an important result. […]
1uM of compound in incubated in mouse liver microsome; the reference compound is ketanserin. […] Samples are analyzed with LC-MS/MS.

In the case of `N=c1c2c(-c3ccccc3)c(-c3ccccc3)n(Cc3ccccc3)c2ncn1C1CCC(O)CC1` (stereo unspecified), the percent remaining is 106%.
